# Measurements reported in patent publication US6632602B1, “Plant sugar sensors and uses thereof” (The General Hospital Corporation, priority 1996, dated 2003).
# Assays:
# [1] = test system: yeast hxk1/hxk2 double mutant (DBY2219); experiment: Yeast glucose repression assay on 2-dGlc/raffinose plate; type: cell-based, Saccharomyces cerevisiae; details: 2% raffinose, 2-deoxyglucose (0.02%)
# From the text: To confirm this hypothesis, we sought to increase the expression of a heterologous HXK that would provide excess catalytic activity for sugar metabolism, but no regulatory function. The yeast HXK2 (YHXK2) has been proposed to have catalytic and regulatory functions, and appeared to be a good candidate for this experiment (Entian, Mol. Gen. Genet. 178, 633 (1980); Entian and Frshlich, J. Bacteriol. 158, 29 (1984); Entian et al., Mol. Cell. Biol. 5, 3035 (1985)). We first determined whether the putative regulatory functions of the YHXK2 and AtHXK were interchangeable by examining the effect of increasing the expression of AtHXK on glucose repression in a yeast hxk1/hxk2 double mutant (DBY2219). The assay was based on the YHXK2-mediated growth inhibition (i.e., glucose repression) of wild-type yeast cells on a 2-dGlc/raffinose plate. The glucose repression assay was performed using a YP plate with 2% raffinose as the carbon source in the presence of 2-deoxyglucose (0.02%) as described by Ma et al. (Mol. Cell. Biol. 9, 5643 (1989)). The glucose analog, 2-dGlc, mimics glucose by inducing strong repression of the invertase gene (SUC2), but is itself unavailable for use as a carbon source.
# [2] = test system: yeast hxk1/hxk2 double mutant (DBY2219); experiment: Functional complementation of yeast hxk1/hxk2 double mutant on fructose; type: cell-based, Saccharomyces cerevisiae; details: for Complementation of yeast double mutant, growth on fructose as sole carbon source: cDNA transformed into DBY2219
# From the text: To elucidate the role of HXK as a sugar sensor, the Arabidopsis HXK genes were cloned by functional complementation using a yeast Saccharomyces cerevisiae hxk1/hxk2 double mutant (designated DBY2219), a strain which lacked HXK activity (Ma and Botstein, Mol. Cell. Biol. 6, 4046 (1986)). Using this approach, we identified two cDNAs, designated AtHXK1 (FIG. 1F; SEQ ID NO: 3, GenBank accession no. U28214) and AtHXK2 (FIG. 1G; SEQ ID NO: 4, GenBank accession no. U28215). These cDNAs, which were 2.0 and 1.9 kb in length respectively, were both found reproducibly to complement the yeast double mutant and to allow its growth on a selection plate containing fructose as the sole carbon source. […] In contrast, mutants transformed with the plasmid vector pFL61 alone were incapable of growth on the same selection media (FIG. 1A) (Minet et al., Plant J. 2, 417 (1992)).
# Arabidopsis seedlings [3] = experiment: Sugar sensitivity bioassay of light-grown seedlings on 6% glucose or 0.8 mM 2-dGlc plates; type: in vivo; details: control plants, constant light; 6% glucose or low concentration (0.8 mM) 2-dGlc
# From the text: To test the hypothesis that AtHXKs act as sugar sensors in intact plants, transgenic plant models were established by introducing sense and antisense genes to alter AtHXK levels. Wild-type (Bensheim) Arabidopsis plants were transformed with binary vectors carrying gene fusions with the CaMV35S promoter and sense AtHXK1 (sense-AtHXK1), sense AtHXK2 (sense-AtHXK2), antisense AtHXK1 (anti-AtHXK1), or antisense AtHXK2 (anti-AtHXK2) using a standard Agrobacterium-mediated root transformation protocol (Czako et al., Mol. Gen. Genet. 235, 33 (1992)). The presence of a transgene was determined by NPTII expression and resultant kanamycin resistance, and by DNA blot analysis. Several transgenic lines of the T3 generation homozygous for the sense or antisense transgenes were selected for further analyses.
# Sugar sensitivity of transgenic plants was examined by performing bioassays using 6% glucose or 0.8 mM 2-deoxyglucose (2-dGlc), a nonmetabolizable glucose analog. […]
# The scored phenotypes shown in Table 1 were determined based on the examination of light-grown, 7-day-old seedlings which were germinated on 1/2 MS plates containing either 6% glucose or 0.8 mM of 2-dGlc. Sugar insensitive (Ins), hypersensitive (Hyp), and ambiguous (A) phenotypes were scored and tabulated.
# Arabidopsis seedlings [4] = experiment: Osmotic control experiments on 6% mannitol or 6% 3-MeGlc plates; type: in vivo; details: plated on 6% of the substance
# From the text: To rule out the possibility that the difference in sugar sensing between transgenic and control plants was due to an osmotic effect, mannitol and 3-O-methylglucose (3-MeGlc) were used in control experiments.
Compound,Glucose repression in hxk1/hxk2 strain [1],"Complementation of yeast double mutant, growth on fructose as sole carbon source [2]",Difference between control and transgenic plants (Arabidopsis seedlings [4]),other results
"AtHXK2: Arabidopsis hexokinase cDNA, SEQ ID NO: 4, GenBank accession no. U28215",did not restore glucose repression,complement,–,–
"O=CC[C@@H](O)[C@H](O)[C@H](O)CO [2-dGlc, 2-deoxyglucose]",–,–,–,Effect of sugar on control (wild-type) seedling development (Arabidopsis seedlings [3]): greening of cotyledons was found to be inhibited
"CO[C@@H]([C@H](O)[C@H](O)CO)[C@@H](O)C=O [3-MeGlc, 3-O-methylglucose]",–,–,No apparent difference,–
OC[C@@H](O)[C@@H](O)[C@H](O)[C@H](O)CO [mannitol],–,–,No apparent difference,–
"AtHXK1: Arabidopsis hexokinase cDNA, SEQ ID NO: 3, GenBank accession no. U28214",did not restore glucose repression,complement,–,Catalytic activity in yeast transformation experiment ([2]; data not shown): higher catalytic activity than AtHXK2
